From patent publication US9745283B2, “Uracil derivatives as AXL and c-MET kinase inhibitors” (priority 2011, dated 2017)

Key:
[1] = molecular target: recombinant human baculovirus-expressed cMET (Homo sapiens (Human), UniProt P08581); test: C-MET Kinase Assay (HTRF KinEASE); type: biochemical; conditions: average of two or more determinations; read-out: c-MET IC50
Procedure, shortened: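 HTRF KinEASE format with recombinant human baculovirus-expressed cMET at 8 ng/mL, biotinylated peptide at 0.1 μM and ATP at 0.02 μM. IC50 came from percent control activity versus log concentration, fitted by nonlinear regression to a variable-slope sigmoidal equation with bottom fixed at 0 and top at 100.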

[2] = molecular target: recombinant human baculovirus-expressed AXL (Homo sapiens (Human), UniProt P30530); test: AXL Kinase Assay (HTRF KinEASE); type: biochemical; conditions: average of two or more determinations
Description: The ability of compounds to inhibit the kinase activity of recombinant human baculovirus-expressed AXL was measured by homogeneous TRF (HTRF) using Cisbio's KinEASE™ assay system in white 384-well Optiplates. Assay buffer contained 1 mM DTT, 2 mM MnCl2, 2% DMSO, […] supplement enzymatic buffer, and 1× enzymatic buffer. A 2× concentration of tyrosine kinase (TK) substrate-biotin/ATP mixture made in assay buffer was added to plates at 10 μL/well using the Multidrop Combi (Thermo Fisher Scientific, Waltham, Mass.). […] Compounds (100 nL), diluted in 100% DMSO on the Biomek FX, (Beckman Coulter, Inc., Brea, Calif.), were transferred to the assay plates using the Biomek FX pintool (2.5% final DMSO in assay). […] Plates were sealed, briefly shaken and incubated at 25° C. for 30 minutes. […] Plates were sealed, briefly shaken and incubated at 25° C. for 1 hour.
Inhibition curves for compounds were generated by plotting percent control activity versus log 10 of the concentration of compound. IC50 values were calculated by nonlinear regression using the sigmoidal dose-response (variable slope) equation in GraphPad Prism as follows: y=bottom+(top−bottom)/(1+10(log IC50−x)*Hill Slope) where y is the % kinase activity at a given concentration of compound, x is the logarithm of the concentration of compound, bottom is the % of control kinase activity at the highest compound concentration tested, and top is the % of control kinase activity at the lowest compound concentration examined. The values for bottom and top were fixed at 0 and 100, respectively.

SMILES	IC50 [1]	IC50 [2]
COc1cc2nccc(Oc3ccc(NC(=O)c4cn(C)c(=O)n(-c5ccc(F)cc5)c4=O)cc3)c2cc1OC [Example 18, 3-(4-Fluorophenyl)-1-methyl-2,4-dioxo-1,2,3,4-tetrahydropyrimidine-5-carboxylic acid [4-(6,7-dimethoxyquinolin-4-yloxy)-phenyl]-amide]	10 to 100 nM	< 10 nM
CCn1nc(C(=O)Nc2ccc(Oc3ccnc4cc(OC)c(OC)cc34)c(F)c2)c(=O)n(-c2ccc(F)cc2)c1=O [Example 105, 2-Ethyl-4-(4-fluoro-phenyl)-3,5-dioxo-2,3,4,5-tetrahydro-[1,2,4]triazine-6-carboxylic acid [4-(6,7-dimethoxy-quinolin-4-yloxy)-3-fluoro-phenyl]-amide]	10 to 100 nM	< 10 nM
COc1cc2nccc(Oc3ccc(NC(=O)c4cn(C)c(=O)n(-c5ccc(F)cc5)c4=O)c(F)c3)c2cc1OC [Example 86, 3-(4-Fluoro-phenyl)-1-methyl-2,4-dioxo-1,2,3,4-tetrahydro-pyrimidine-5-carboxylic acid [4-(6,7-dimethoxy-quinolin-4-yloxy)-2-fluoro-phenyl]-amide]	10 to 100 nM	< 10 nM
CCn1cc(C(=O)Nc2ccc(Oc3ccnc4cc(OC)c(OC)cc34)c(F)c2F)c(=O)n(-c2ccc(F)cc2)c1=O [Example 147, 1-Ethyl-3-(4-fluoro-phenyl)-2,4-dioxo-1,2,3,4-tetrahydro-pyrimidine-5-carboxylic acid [4-(6,7-dimethoxy-quinolin-4-yloxy)-2,3-difluoro-phenyl]-amide]	< 10 nM	< 10 nM
COc1cc(Oc2ccnc3cc(OC)c(OC)cc23)ccc1NC(=O)c1cn(C)c(=O)n(-c2ccc(F)cc2)c1=O [Example 144, 1-Methyl-3-(4-fluoro-phenyl)-2,4-dioxo-1,2,3,4-tetrahydro-pyrimidine-5-carboxylic acid [4-(6,7-dimethoxy-quinolin-4-yloxy)-2-methoxy-phenyl]-amide]	10 to 100 nM	< 10 nM
CCC(C)Cn1c(=O)c(C(=O)Nc2ccc(Oc3ccnc4cc(OC)c(OC)cc34)c(F)c2)nn(C)c1=O (racemic) [Example 130, ±2-Methyl-4-(2-methyl-butyl)-3,5-dioxo-2,3,4,5-tetrahydro-[1,2,4]triazine-6-carboxylic acid [4-(6,7-dimethoxy-quinolin-4-yloxy)-3-fluoro-phenyl]-amide]	10 to 100 nM	< 10 nM
COc1cc2nccc(Oc3ccc(NC(=O)c4cn(CCn5cccn5)c(=O)n(-c5ccc(F)cc5)c4=O)cc3F)c2cc1OC [Example 63, 3-(4-Fluoro-phenyl)-2,4-dioxo-1-(2-pyrazol-1-yl-ethyl)-1,2,3,4-tetrahydro-pyrimidine-5-carboxylic acid [4-(6,7-dimethoxy-quinolin-4-yloxy)-3-fluoro-phenyl]-amide]	< 10 nM	< 10 nM
CCOCCn1cc(C(=O)Nc2ccc(Oc3ccnc4cc(OC)c(OC)cc34)c(F)c2)c(=O)n(-c2ccc(F)cc2)c1=O [Example 4, 1-(2-Ethoxyethyl)-3-(4-fluorophenyl)-2,4-dioxo-1,2,3,4-tetrahydropyrimidine-5-carboxylic acid [4-(6,7-dimethoxyquinolin-4-yloxy)-3-fluorophenyl]-amide]	10 to 100 nM	< 10 nM

Next, values leading:

IC50 [1]	IC50 [2]	SMILES
< 10 nM	< 10 nM	COc1cc2nccc(Oc3ccc(NC(=O)c4cn(CC=C(F)F)c(=O)n(-c5ccc(F)cc5)c4=O)cc3F)c2cc1OC [Example 14, 1-(3,3-Difluoro-allyl)-3-(4-fluorophenyl)-2,4-dioxo-1,2,3,4-tetrahydropyrimidine-5-carboxylic acid [4-(6,7-dimethoxyquinolin-4-yloxy)-3-fluorophenyl]-amide]
10 to 100 nM	< 10 nM	COc1cc2nccc(Oc3ccc(NC(=O)c4cn(C5CCOCC5)c(=O)n(-c5ccc(F)cc5)c4=O)cc3F)c2cc1OC [Example 30, 3-(4-Fluorophenyl)-2,4-dioxo-1-(tetrahydropyran-4-yl)-1,2,3,4-tetrahydropyrimidine-5-carboxylic acid [4-(6,7-dimethoxyquinolin-4-yloxy)-3-fluorophenyl]-amide]
< 10 nM	< 10 nM	COc1cc2nccc(Oc3ccc(NC(=O)c4cn(CC5CC5)c(=O)n(-c5ccc(F)cc5)c4=O)cc3F)c2cc1OC [Example 6, 1-Cyclopropylmethyl-3-(4-fluorophenyl)-2,4-dioxo-1,2,3,4-tetrahydropyrimidine-5-carboxylic acid [4-(6,7-dimethoxyquinolin-4-yloxy)-3-fluorophenyl]-amide]
10 to 100 nM	< 10 nM	CCn1c(=O)c(C(=O)Nc2ccc(Oc3ccnc4cc(OC)c(OC)cc34)c(F)c2)cn(-c2ccc(F)cc2)c1=O [Example 91, 3-Ethyl-1-(4-fluoro-phenyl)-2,4-dioxo-1,2,3,4-tetrahydro-pyrimidine-5-carboxylic acid [4-(6,7-dimethoxy-quinolin-4-yloxy)-3-fluoro-phenyl]-amide]
< 10 nM	< 10 nM	COc1cc2nccc(Oc3ccc(NC(=O)c4cn(CCCO)c(=O)n(-c5ccc(F)cc5)c4=O)c(F)c3)c2cc1OC [Example 51, 3-(4-Fluorophenyl)-1-(3-hydroxypropyl)-2,4-dioxo-1,2,3,4-tetrahydropyrimidine-5-carboxylic acid [4-(6,7-dimethoxy-quinolin-4-yloxy)-2-fluoro-phenyl]-amide]
10 to 100 nM	< 10 nM	COc1cc2nccc(Oc3ccc(NC(=O)c4cn(CC(=O)N(C)C)c(=O)n(-c5ccc(F)cc5)c4=O)cc3F)c2cc1OC [Example 83, 1-Dimethylcarbamoylmethyl-3-(4-fluorophenyl)-2,4-dioxo-1,2,3,4-tetrahydro-pyrimidine-5-carboxylic acid [4-(6,7-dimethoxy-quinolin-4-yloxy)-3-fluorophenyl]-amide]
10 to 100 nM	< 10 nM	COCCn1cc(C(=O)Nc2ccc(Oc3ccnc4cc(OC)c(OC)cc34)c(F)c2)c(=O)n(-c2ccc(F)cc2)c1=O [Example 3, 3-(4-Fluorophenyl)-1-(2-methoxyethyl)-2,4-dioxo-1,2,3,4-tetrahydropyrimidine-5-carboxylic acid [4-(6,7-dimethoxyquinolin-4-yloxy)-3-fluorophenyl]-amide]
< 10 nM	< 10 nM	CCN(CC)C(=O)Cn1cc(C(=O)Nc2ccc(Oc3ccnc4cc(OC)c(OC)cc34)c(F)c2)c(=O)n(-c2ccc(F)cc2)c1=O [Example 66, 1-Diethylcarbamoylmethyl-3-(4-fluoro-phenyl)-2,4-dioxo-1,2,3,4-tetrahydro-pyrimidine-5-carboxylic acid [4-(6,7-dimethoxy-quinolin-4-yloxy)-3-fluoro-phenyl]-amide]
< 10 nM	< 10 nM	COc1cc2nccc(Oc3ccc(NC(=O)c4cn(CCN5CCCC5=O)c(=O)n(-c5ccc(F)cc5)c4=O)cc3F)c2cc1OC [Example 68, 3-(4-Fluoro-phenyl)-2,4-dioxo-1-[2-(2-oxo-pyrrolidin-1-yl)-ethyl]-1,2,3,4-tetrahydro-pyrimidine-5-carboxylic acid [4-(6,7-dimethoxy-quinolin-4-yloxy)-3-fluoro-phenyl]-amide]
